The record followed here is patent US20140206681A1, “BTK INHIBITORS” (priority 2013, published 2014).

SMILES strings stand for the structures.

Assay [1] concerns the target T1, BTK enzyme (recombinant full-length BTK, hBTK) (Homo sapiens, UniProt Q06187).
T1 construct: recombinant protein from baculovirus-transfected Sf9 cells: full-length BTK, 6HIS-tag cleaved; 6HIS (cleaved yes); made in house; host or cells: baculovirus-transfected Sf9 cells
Briefly: BTK enzyme activity assay, LANCE TR-FRET. The format is biochemical. To be noted: 50 pM hBTK, 2 μM biotin-A5-peptide, 25 μM ATP; 60 min compound & enzyme incubation; read-out: IC50 BTK activity value. For orientation: TR-FRET usually uses a lanthanide donor and a delayed reading to cut background.

A further assay concerns HeLa cells. The assay is described as follows: [3H]Adenosine uptake functional cellular assay. In kind it is cell-based. To be noted: Homo sapiens, HeLa, accumulation of [3H]adenosine into HeLa cells; compound range 10 μM to […]; read-out: Adenosine uptake inhibition IC50. The method, boiled down: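 Inhibition of adenosine uptake was measured in HeLa cells (ATCC CCL-2) by following accumulation of tritiated adenosine. Cells were kept overnight at 37° C. with 5% (v/v) CO2, then switched to 40 μL HBSS plus 5% (v/v) FBS. 20 μL of 500 nM [3H]adenosine was added, and uptake was counted on a Topcount NXT reader.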

What is called IC50 is the point on the concentration scale where inhibition reaches its midpoint.

T1 sequence (Q06187 whole entry): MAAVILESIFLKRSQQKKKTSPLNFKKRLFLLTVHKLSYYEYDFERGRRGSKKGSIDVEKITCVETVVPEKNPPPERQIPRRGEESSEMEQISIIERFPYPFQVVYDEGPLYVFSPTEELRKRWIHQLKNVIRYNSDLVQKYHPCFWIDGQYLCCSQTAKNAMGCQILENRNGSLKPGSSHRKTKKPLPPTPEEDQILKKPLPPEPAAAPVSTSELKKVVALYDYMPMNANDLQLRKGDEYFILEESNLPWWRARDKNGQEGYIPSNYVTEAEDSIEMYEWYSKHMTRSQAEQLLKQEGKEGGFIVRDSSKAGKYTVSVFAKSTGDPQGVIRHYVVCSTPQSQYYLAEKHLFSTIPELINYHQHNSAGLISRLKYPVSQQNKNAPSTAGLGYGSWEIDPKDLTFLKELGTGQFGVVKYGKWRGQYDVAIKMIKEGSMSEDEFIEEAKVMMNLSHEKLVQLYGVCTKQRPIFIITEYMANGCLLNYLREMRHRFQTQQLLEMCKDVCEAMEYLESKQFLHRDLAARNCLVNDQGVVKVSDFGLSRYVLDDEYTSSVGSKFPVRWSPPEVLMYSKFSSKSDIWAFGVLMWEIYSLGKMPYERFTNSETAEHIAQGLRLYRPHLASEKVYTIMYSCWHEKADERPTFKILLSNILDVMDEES

On to `Nc1nccn2c([C@@H]3CC[C@H]4CCC(=O)N4C3)nc(-c3ccc(C(=O)Nc4cc(C5CC5)ccn4)cc3OC3CC3)c12` [Example 148, 4-{8-amino-3-[(6R,8aS)-3-oxooctahydroindolizin-6-yl]imidazo[1,5-a]pyrazin-1-yl}-3-(cyclopropyloxy)-N-(4-cyclopropylpyridin-2-yl)benzamide], for which the figures for the IC50 (in assay [1]; with HeLa cells) were 0.0014 µM and 1.07 µM, respectively.

Turning to `Cn1nc(NC(=O)c2ccc(-c3nc([C@@H]4CC[C@H]5CCC(=O)N5C4)n4ccnc(N)c34)c(OC3CNC3)c2)cc1C(F)(F)F` [Example 149, 4-{8-amino-3-[(6R,8aS)-3-oxooctahydroindolizin-6-yl]imidazo[1,5-a]pyrazin-1-yl}-3-(azetidin-3-yloxy)-N-[1-methyl-5-(trifluoromethyl)-1H-pyrazol-3-yl]benzamide], the figures for the IC50 (in assay [1]; in the assay on HeLa cells) were 0.0967 µM and not below 10 µM, respectively.

As for `Cn1nc(NC(=O)c2cc(OC3CC3)c(-c3nc([C@@H]4CC[C@H]5CCC(=O)N5C4)n4c(Cl)cnc(N)c34)cc2F)cc1C(F)(F)F` [Example 150, 4-{8-amino-5-chloro-3-[(6R,8aS)-3-oxooctahydroindolizin-6-yl]imidazo[1,5-a]pyrazin-1-yl}-5-(cyclopropyloxy)-2-fluoro-N-[1-methyl-5-(trifluoromethyl)-1H-pyrazol-3-yl]benzamide], the IC50 in assay [1] worked out at 0.0018 µM; in the assay with HeLa cells, 2.3 µM.

Consider `CCOc1cc(C(=O)Nc2cc(C(F)(F)F)ccn2)c(F)cc1-c1nc([C@@H]2CC[C@H]3CCC(=O)N3C2)n2ccnc(N)c12` [Example 151, 4-{8-amino-3-[(6R,8aS)-3-oxooctahydroindolizin-6-yl]imidazo[1,5-a]pyrazin-1-yl}-5-ethoxy-2-fluoro-N-[4-(trifluoromethyl)pyridin-2-yl]benzamide], for which the IC50 came to 0.00075 µM in assay [1] and 1.12 µM in the assay on HeLa cells.

For the compound `CCOc1cc(C(=O)Nc2cc(C(F)(F)F)n(C)n2)c(F)cc1-c1nc([C@@H]2CC[C@H]3CCC(=O)N3C2)n2ccnc(N)c12` [Example 152, 4-{8-amino-3-[(6R,8aS)-3-oxooctahydroindolizin-6-yl]imidazo[1,5-a]pyrazin-1-yl}-5-ethoxy-2-fluoro-N-[1-methyl-5-(trifluoromethyl)-1H-pyrazol-3-yl]benzamide], the results for the IC50 (in assay [1]; in the assay on HeLa cells) were 0.0013 µM and 1.89 µM, respectively.

In the case of `Nc1ncc(Cl)n2c([C@@H]3CC[C@H]4CCC(=O)N4C3)nc(-c3ccc(C(=O)Nc4cc(C(F)(F)F)ccn4)cc3)c12` [Example 153, 4-{8-amino-5-chloro-3-[(6R,8aS)-3-oxooctahydroindolizin-6-yl]imidazo[1,5-a]pyrazin-1-yl}-N-[4-(trifluoromethyl)pyridin-2-yl]benzamide], the IC50 is 0.00016 µM in assay [1] and 0.501 µM with HeLa cells.

`CC(=O)Oc1cc(C(=O)Nc2cc(C(F)(F)F)ccn2)ccc1-c1nc([C@@H]2CC[C@H]3CCC(=O)N3C2)n2ccnc(N)c12` [Example 155, 2-{8-amino-3-[(6R,8aS)-3-oxooctahydroindolizin-6-yl]imidazo[1,5-a]pyrazin-1-yl}-5-{[4-(trifluoromethyl)pyridin-2-yl]carbamoyl}phenyl acetate]: the IC50 came to 0.0039 µM in assay [1] and 1.53 µM with HeLa cells.

As to `CC(=O)Nc1nccn2c([C@@H]3CC[C@H]4CCC(=O)N4C3)nc(-c3ccc(C(=O)Nc4cc(C(F)(F)F)ccn4)cc3O)c12` [Example 156, 4-{8-(acetylamino)-3-[(6R,8aS)-3-oxooctahydroindolizin-6-yl]imidazo[1,5-a]pyrazin-1-yl}-3-hydroxy-N-[4-(trifluoromethyl)pyridin-2-yl]benzamide], the IC50 in assay [1] worked out at 0.0044 µM; in the assay on HeLa cells, 1.75 µM.

In the case of `COCCN(C(=O)c1ccc(-c2nc([C@@H]3CC[C@H]4CCC(=O)N4C3)n3ccnc(N)c23)c(O)c1)c1cc(C(F)(F)F)ccn1` [Example 157, 4-{8-amino-3-[(6R,8aS)-3-oxooctahydroindolizin-6-yl]imidazo[1,5-a]pyrazin-1-yl}-3-hydroxy-N-(2-methoxyethyl)-N-[4-(trifluoromethyl)pyridin-2-yl]benzamide], the values for the IC50 (in assay [1]; in the assay on HeLa cells) were 0.292 µM and 1.78 µM, respectively.

With `CCOc1cc(C(=O)Nc2ncc(C)s2)ccc1-c1nc([C@@H]2CC[C@H]3CCC(=O)N3C2)n2c(Cl)cnc(N)c12` [Example 158, 4-{8-amino-5-chloro-3-[(6R,8aS)-3-oxooctahydroindolizin-6-yl]imidazo[1,5-a]pyrazin-1-yl}-3-ethoxy-N-(5-methyl-1,3-thiazol-2-yl)benzamide], the IC50 came out at 0.00045 µM in assay [1] and 2.07 µM in the assay with HeLa cells.

As to `CCOc1cc(C(=O)Nc2ncc(C)s2)ccc1-c1nc([C@@H]2CC[C@H]3CCC(=O)N3C2)n2ccnc(N)c12` [Example 159, 4-{8-amino-3-[(6R,8aS)-3-oxooctahydroindolizin-6-yl]imidazo[1,5-a]pyrazin-1-yl}-3-ethoxy-N-(5-methyl-1,3-thiazol-2-yl)benzamide], the results for the IC50 (in assay [1]; with HeLa cells) were 0.00063 µM and 1.22 µM, respectively.

In the case of `Nc1ncc(F)n2c([C@@H]3CC[C@H]4CCC(=O)N4C3)nc(-c3ccc(C(=O)Nc4cc(C(F)(F)F)ccn4)cc3)c12` [Example 160, 4-{8-amino-5-fluoro-3-[(6R,8aS)-3-oxooctahydroindolizin-6-yl]imidazo[1,5-a]pyrazin-1-yl}-N-[4-(trifluoromethyl)pyridin-2-yl]benzamide], the IC50 is 0.00028 µM in assay [1] and 0.29 µM with HeLa cells.

Consider `CCOc1cc(C(=O)Nc2cc(C(F)(F)F)ccn2)ccc1-c1nc([C@@H]2CC[C@H]3CCC(=O)N3C2)n2c(F)cnc(N)c12` [Example 161, 4-{8-amino-5-fluoro-3-[(6R,8aS)-3-oxooctahydroindolizin-6-yl]imidazo[1,5-a]pyrazin-1-yl}-3-ethoxy-N-[4-(trifluoromethyl)pyridin-2-yl]benzamide], for which the IC50 turned out to be 0.00099 µM in assay [1] and 1.54 µM in the assay on HeLa cells.

As for `COc1cc(C(=O)Nc2cc(C(F)(F)F)ccn2)ccc1-c1nc([C@@H]2CC[C@H]3CCC(=O)N3C2)n2c(F)cnc(N)c12` [Example 162, 4-{8-amino-5-fluoro-3-[(6R,8aS)-3-oxooctahydroindolizin-6-yl]imidazo[1,5-a]pyrazin-1-yl}-3-methoxy-N-[4-(trifluoromethyl)pyridin-2-yl]benzamide], the IC50 amounted to 0.0013 µM in assay [1] and 1.54 µM in the assay on HeLa cells.

For the compound `CCOc1cc(C(=O)Nc2cc(C(F)(F)F)n(C)n2)ccc1-c1nc([C@@H]2CC[C@H]3CCC(=O)N3C2)n2c(F)cnc(N)c12` [Example 163, 4-{8-amino-5-fluoro-3-[(6R,8aS)-3-oxooctahydroindolizin-6-yl]imidazo[1,5-a]pyrazin-1-yl}-3-ethoxy-N-[1-methyl-5-(trifluoromethyl)-1H-pyrazol-3-yl]benzamide], the IC50 was 0.0031 µM in assay [1] and 2.41 µM with HeLa cells.

Turning to `CCOc1cc(C(=O)Nc2ncc(C)s2)ccc1-c1nc([C@@H]2CC[C@H]3CCC(=O)N3C2)n2c(F)cnc(N)c12` [Example 164, 4-{8-amino-5-fluoro-3-[(6R,8aS)-3-oxooctahydroindolizin-6-yl]imidazo[1,5-a]pyrazin-1-yl}-3-ethoxy-N-(5-methyl-1,3-thiazol-2-yl)benzamide], the IC50 in assay [1] turned out to be 0.0019 µM; with HeLa cells it was 0.817 µM.
